In patent US20200038415A1, “AMINOSTEROL COMPOSITIONS AND METHODS OF USING THE SAME FOR TREATING ERECTILE DYSFUNCTION” (Enterin, Inc., priority 2018, published 2020):

Experiments:
Solubility in water = type: physicochemical; settings: phosphate salt
[1] = tested on: PD patients with constipation; assay: Phase 2 trial Stage 2: bowel function under daily oral dosing (fixed dose, randomized period, wash-out); type: in vivo, human; settings: Stage 2 fixed dose
Experimental: (§1) Following successful screening, all subjects underwent a 14-day run-in period where the degree of constipation was assessed through a validated daily log (Zinsmeister et al. 2013) establishing baseline CSBMs/week. Subjects with an average of <3 CSBMs/week proceeded to dosing.
(§2) In Stage 2, 34 patients were evaluated.
The primary efficacy outcome variable was whether or not a subject was a “success” or “failure”. This is an endpoint based on subject diary entries for the “fixed dose” period prior to the endpoint assessment defined as average complete stool frequency increase by 1 or more over baseline, or 3 or more complete spontaneous stools/week. The subject was deemed a “success” if s/he met one or more of the criteria listed above, otherwise the subject was deemed a “failure”. The primary analysis was based on all subjects with a baseline assessment and an assessment at the end of the “fixed-dose” period and was a comparison of the proportion of successes with 0.10 (the null hypothesis corresponding to no treatment effect).
The proportion of subjects for whom the drug was a success was estimated with a binomial point estimate and corresponding 95% confidence interval. A secondary analysis compared the proportions of subjects who are deemed a success at the end of the randomized fixed-dose period between those randomized to the squalamine (ENT-01) arm and those randomized to the placebo arm. A Fisher's exact test was used to compare the proportions of subjects who were deemed a success at the end of randomization period between the two randomized arms

[2] = tested on: PD patients with constipation; assay: Safety and adverse event profile, Stage 1; type: in vivo, human
Text: (§3) Tolerability limits included diarrhea or vomiting.

[3] = tested on: PD patients with constipation; assay: Safety and adverse event profile, Stage 2; type: in vivo, human
Experimental: as §2

[4] = Pharmacokinetics of orally administered squalamine (ENT-01) in Stage 1; type: in vivo, human; settings: based on PK of intravenously administered squalamine in prior clinical studies
Experimental: PK data were collected on the 10 patients enrolled in Stage 1 and 10 patients enrolled in Stage 2 to determine the extent of systemic absorption. In Stage 1, PK data were obtained at each visit, pre-medication, at 1, 2, 4, 8 and 24 hours (Table 10). In Stage 2, PK was measured on days 1 and 6 of the randomization period pre-medication, at 1, 2, 4 and 8 hours (Table 11).
The mean Cmax, Tmax and T1/2 and AUC of the squalamine ion following squalamine (ENT-01) oral dosing for Stage 1 patients. The PK analyses are only approximate, as the lower limit of the validated concentration range was 10 ng/ml; most of the measured concentrations fell below that value. The mean Cmax, Tmax and T1/2 and AUC of the squalamine ion following squalamine (ENT-01) oral dosing for Stage 2 patients. The PK analyses are only approximate, as the lower limit of the validated concentration range was 0.5 ng/ml.

[5] = Preclinical oral bioavailability and intestinal absorption in rats; type: in vivo; settings: oral radioactive ENT-01, portal blood concentrations
[6] = tested on: PD patients with constipation; assay: Safety and adverse event profile, Stage 1 and 2 combined (44 dosed); type: in vivo, human
Experimental: Fifty patients were enrolled and 44 were dosed. In Stage 1, 10 patients were dosed, 1 (10%) withdrew prior to completion and 9 (90%) completed dosing. In stage 2, 6 (15%) patients had ≥3 CSBM/week at the end of the run-in period and were excluded, 34 patients were dosed and bowel response was assessable in 31 (91%). Two patients (5.8%) were terminated prior to completion because of recurrent dizziness, and 3 others withdrew during dosing (8.8%): 2 because of diarrhea and 1 because of holiday. Fifteen patients were randomized.

[7] = tested on: PD patients with constipation; assay: Phase 2 trial Stage 1: prokinetic response to single escalating oral doses; type: in vivo, human; settings: Example 1, FIG. 1A
Experimental: as §1, §3

## CC(C)[C@@H](CC[C@@H](C)[C@H]1CC[C@H]2[C@@H]3[C@H](O)C[C@H]4C[C@@H](NCCCNCCCCN)CC[C@]4(C)[C@H]3CC[C@]12C)OS(=O)(=O)O (single isomer, unassigned) [squalamine (ENT-01), squalamine]
Solubility in water; neutral pH
  solubility in water: weakly soluble
Solubility in water; pH<3.5 (the pH of gastric fluid)
  solubility in water: readily dissolves
[1]; n=34, baseline 1.2 (0.90)
  CSBM, weekly average (mean, SD): 3.8 /week
[1]; n=34, baseline 2.6 (1.45)
  SBM, weekly average (mean, SD): 4.5 /week
[1]; baseline 1.8 (1.92)
  Suppository use / rescue medication, weekly average (mean, SD): 0.3 /week
[1]; scale 1-7, baseline 2.7 (1.20), listed as aminosterol
  Consistency, Bristol stool scale (mean, SD): 4.1
[1]; scale 1-7, baseline 3.2 (0.73), listed as aminosterol
  Ease of passage, Ease of evacuation scale (mean, SD): 3.7
[2]; Stage 1, 4/10 patients
  diarrhea, patients: 40%
  nausea, patients: 40%
[2]; Stage 1, share of AEs
  AEs confined to the GI tract: 88%
[3]; Stage 2
  patients who withdrew during dosing because of diarrhea: 2 patients
[3]; Stage 2, 15/34 patients
  diarrhea, patients: 44%
[3]; Stage 2, 34 dosed
  Abdominal pain, Mild: 4 n
  Abdominal pain, Moderate: 2 n
  Blood in urine, Mild: 0 n
  Blood in urine, Moderate: 0 n
  Diarrhea, Mild: 12 n
  Diarrhea, Moderate: 2 n
  Diarrhea, Severe: 1 n
  Difficulty falling asleep, Mild: 1 n
  Difficulty falling asleep, Moderate: 0 n
  Dizziness, Mild: 7 n
  Dizziness, Moderate: 1 n
  Eye infection, Mild: 1 n
  Eye infection, Moderate: 0 n
  Flatulence, Mild: 1 n
  Flatulence, Moderate: 0 n
  Headache, Mild: 3 n
  Headache, Moderate: 0 n
  Increased urinary frequency, Mild: 2 n
  Increased urinary frequency, Moderate: 0 n
  Loss of appetite, Mild: 0 n
  Loss of appetite, Moderate: 0 n
  Nausea, Mild: 18 n
  Nausea, Moderate: 1 n
  Skin lesions-rash, Mild: 3 n
  Skin lesions-rash, Moderate: 0 n
  Urinary retention, Mild: 1 n
  Urinary retention, Moderate: 0 n
  Urinary tract infection, Mild: 1 n
  Urinary tract infection, Moderate: 2 n
  Vomiting, Mild: 2 n
  Vomiting, Moderate: 0 n
  Worsening acid reflux, Mild: 4 n
  Worsening acid reflux, Moderate: 0 n
  Worsening hemorrhoid, Mild: 1 n
  Worsening hemorrhoid, Moderate: 0 n
[3]; Stage 2, share of AEs
  AEs confined to the GI tract: 63%
[3]; Stage 2, Unrelated to ENT-01
  Lower GI bleed, Severe: 1 n
[3]; during the withdrawal period, considered unrelated to study medication
  lower GI bleed (Serious adverse event, SAE): One patient
[4]
  oral bio-availability (estimated): less than 0.3%
[4]; listed as aminosterol
  oral bio-availability (estimated): < 0.3%
[5]
  absorption from the intestine: low
[6]; 1/44 patients
  worsening of hemorrhoids, patients: 2.2%
[6]; 2/44 patients
  worsening of acid reflux, patients: 4.5%
[6]; 3/44 patients
  flatulence, patients: 6.8%
  vomiting, patients: 6.8%
[6]; 8/44 patients
  dizziness, patients: 18%
[6]; 11/44 patients
  abdominal pain, patients: 32%
[6]; in vivo
  outcome of all other AEs: resolved spontaneously without discontinuation
[7]
  subjects responded with improved bowel function: 80%
